# Measurements: EP1964834A1, “Sulphonyltryptophanols” (Bayer Schering Pharma Aktiengesellschaft, priority 2007, dated 2008)
# Target: T1, human FSH receptor (Homo sapiens, UniProt P23945)
# T1 construct: expressed in transfected cells; host or cells: CHO cells (hFSHR clone 16)
# T1 sequence (P23945 18-695): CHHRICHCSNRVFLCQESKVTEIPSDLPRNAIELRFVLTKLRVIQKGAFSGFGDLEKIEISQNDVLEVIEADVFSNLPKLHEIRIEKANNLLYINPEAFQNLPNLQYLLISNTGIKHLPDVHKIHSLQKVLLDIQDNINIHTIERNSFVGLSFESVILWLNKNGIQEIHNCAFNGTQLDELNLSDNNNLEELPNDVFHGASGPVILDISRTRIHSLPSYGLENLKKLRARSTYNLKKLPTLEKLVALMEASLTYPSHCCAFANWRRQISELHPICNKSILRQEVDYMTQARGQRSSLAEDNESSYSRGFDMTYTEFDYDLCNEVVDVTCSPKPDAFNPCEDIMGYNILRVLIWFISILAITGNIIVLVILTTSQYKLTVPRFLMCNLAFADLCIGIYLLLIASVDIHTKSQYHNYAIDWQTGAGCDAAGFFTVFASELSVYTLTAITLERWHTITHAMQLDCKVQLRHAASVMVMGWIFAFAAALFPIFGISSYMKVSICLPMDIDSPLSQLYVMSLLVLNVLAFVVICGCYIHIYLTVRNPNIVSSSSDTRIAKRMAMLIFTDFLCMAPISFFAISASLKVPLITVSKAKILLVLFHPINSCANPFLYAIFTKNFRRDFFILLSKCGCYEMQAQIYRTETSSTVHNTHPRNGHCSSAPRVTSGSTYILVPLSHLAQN
# Experiment: HTRF assay for measuring cAMP in cells (FSH antagonism)
# Format: cell-based
# Conditions: FSH antagonistic effect; hFSHR clone 16 cells (CHO cells stably transfected with the human FSH receptor); in the presence of 1 e-9 mol/I hFSH; 37°C for 2h
# Procedure: HTRF assay for measuring cAMP in cells
# The method is based on a competitive immunoassay between native cAMP, which has been produced by the cells, and cAMP which is labelled with cAMPD2 conjugate. The tracer binding was visualized by a monoclonal antibody, anti-cAMP labelled with cryptate [HTRF = homogeneous time-resolved fluorescence]. The specific signal is inversely proportional to the cAMP concentration of the samples employed. The 665nm/ 620nm fluorescence ratio was evaluated.
# The following material was used: 96-well plates for the tissue culture, 96-well plates with black edge and black base (e.g. Fluotrac 600 from Greiner), 96-well plates for the substance dilutions of polypropylene and cAMP Femtomolar (4000wells Kit, CIS Bio International # 62AM5PEJ). The following reagents were used: BSA (bovine serum albumin) Fraction V protease-free, IBMX (3-isobutyl-1-methylxanthine), hFSH (human follicle stimulating hormone), Triton X-100 analytical grade, potassium fluoride analytical grade, G 418 (Geneticin) and Accutase. • Buffer 1 (washing and testing buffer) contained PBS, 1 mM CaCl2, 1 mM MgCl2, 0.2% glucose; 0.1% BSA, 1 mM IBMX. • Buffer 2 (2x lysis buffer) contained 1% Triton X-100 in PBS (without CaCl2 and MgCl2). • Buffer 3 (assay buffer) contained 50 mM potassium phosphate buffer (pH 7.0); 800 mM potassium fluoride; 0.2% BSA (always added fresh).
# On day 1, the cells were seeded in 96-well plates (3x10^4 cells per well hFSHR clone 16 cells (CHO cells stably transfected with the human FSH receptor in 150 µl of medium). The next day, test substance dilutions were made up. For this purpose, all the substances were diluted in ice-cold buffer 1 (with or without hFSH), and the substance dilutions were placed on ice until applied to the cells.
# The cell supernatant was then aspirated off, and the cells were washed 2x with 200 µl of buffer 1. The cells were treated with 60 µl of the appropriate substance concentrations at 37°C for 2h. The cells were then lysed with 60 µl of buffer 2 (put onto the supernatant) (on a plate shaker at RT for 30 min).
# The test conjugates (cAMP-D2 and anti-cAMP cryptate, CIS Bio) were diluted in buffer 3 in accordance with the manufacturers' information. The actual mixture for measurement was pipetted into a black 96-well plate (in each case 15 µl of the cell lysate diluted with 35 µl of buffer 1; firstly 25 µl of cAMP-D2 conjugate were pipetted and, after 10 min, 25 µl of the anti-cAMP cryptate were added). This is followed by incubation at RT for 90 minutes. The measurement was carried out in a PheraStar (BMG).
# 1) hFSHr clone 16 Ham's F12 PSG 10% FCS 700 µg/ml G 418 (Geneticin) from PAA.
# Dose-effect curve (hFSH) for the human receptor: 1e-8, 3e-9, 1e-9, 3e-10, 1e-10, 3e-11, 1e-11, 3e-12 mol/l.
# The test substances were employed in suitable dilutions in the absence (test for agonism) and in the presence of 1 e-9 mol/I hFSH.
# The values of the well ratio were averaged and then entered directly in SigmaPlot versus the concentrations. The maximum and minimum values were determined for each plate, and half the difference is to be regarded as IC50.
row,SMILES,IC50 [µM]
1,"COc1ccc(-c2cc(OC)c(OC)c(OC)c2)cc1S(=O)(=O)N[C@@H](CO)Cc1c[nH]c2ccccc12 [Example 1, 4,3',4',5'-Tetramethoxy-biphenyl-3-sulfonic acid [(R)-2-hydroxy-1-(1H-indol-3-ylmethyl)-ethyl]-amide]",3.5
2,"CNC(=O)c1ccc(-c2ccc(OC)c(S(=O)(=O)N[C@@H](CO)Cc3c[nH]c4ccccc34)c2)cc1Cl [Example 3, 3-Chloro-3'-[(R)-2-hydroxy-1-(1H-indol-3-ylmethyl)-ethylsulfamoyl]-4'-methoxybiphenyl-4-carboxylic acid me-thylamide]",4
3,"CNC(=O)c1ccc(-c2ccc(OC(C)C)c(S(=O)(=O)N[C@@H](CO)Cc3c[nH]c4ccccc34)c2)cc1Cl [Example 9, 3-Chloro-3'-[(R)-2-hydroxy-1-(1H-indol-3-ylmethyl)-ethylsulfamoyl]-4'-isopropoxybiphenyl-4-carboxylic acid methylamide]",0.18
4,"CNC(=O)c1ccc(C#Cc2ccc(OC)c(S(=O)(=O)N[C@@H](CO)Cc3c[nH]c4ccccc34)c2)cc1 [Example 18, 4-{3-[(R)-2-Hydroxy-1-(1H-indol-3-ylmethyl)-ethylsulfamoyl]-4-methoxyphenylethynyl}-N-methyl-benzamide]",2.5
5,"CNC(=O)c1ccc(C#Cc2ccc(OC)c(S(=O)(=O)N[C@H](Cc3c[nH]c4ccccc34)C(C)(C)O)c2)cc1 [Example 22, 4-{3-[(R)-2-Hydroxy-1-(1H-indol-3-ylmethyl)-2-methyl-propyisulfamoyl]-4-methoxyphenylethynyl}-N-methyl-benzamide]",3.5
